Measured values published in patent publication US11180484B2, “Pyrazole derivatives as plasma kallikrein inhibitors” (KALVISTA PHARMACEUTICALS LIMITED, priority 2016, dated 2021).
≈ marks a conversion by molar mass, not a printed value. Like-named read-outs stand apart in the source and are kept apart here.

How the values were obtained:
Human KLK1 = Human KLK1 (Homo sapiens (Human), UniProt P06870); test: Determination of the IC50 for KLK1; assay type: biochemical; conditions: 25° C., substrate H-DVal-Leu-Arg-AFC
Chain of Human KLK1 (P06870 25-262): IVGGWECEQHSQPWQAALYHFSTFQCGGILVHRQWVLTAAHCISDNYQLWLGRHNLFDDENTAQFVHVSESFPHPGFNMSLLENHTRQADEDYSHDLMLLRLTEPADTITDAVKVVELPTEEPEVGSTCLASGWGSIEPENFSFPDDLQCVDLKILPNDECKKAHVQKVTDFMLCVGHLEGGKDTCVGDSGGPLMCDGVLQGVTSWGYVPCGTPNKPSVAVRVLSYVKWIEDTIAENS
Description: Human KLK1 (Callbiochem) was incubated at 25° C. with the fluorogenic substrate H-DVal-Leu-Arg-AFC and various concentrations of the test compound. Residual enzyme activity (initial rate of reaction) was determined by measuring the change in […] at 410 nm and the IC50 value for the test compound was determined.

Human Factor XIIa = Human Factor XIIa (Homo sapiens (Human), UniProt P00748); test: Factor XIIa inhibitory activity in vitro; assay type: biochemical; conditions: 25° C., substrate H-DPro-Phe-Arg-AFC; read-out: IC50 (human FXIIa)
Chain of Human Factor XIIa (P00748 373-615): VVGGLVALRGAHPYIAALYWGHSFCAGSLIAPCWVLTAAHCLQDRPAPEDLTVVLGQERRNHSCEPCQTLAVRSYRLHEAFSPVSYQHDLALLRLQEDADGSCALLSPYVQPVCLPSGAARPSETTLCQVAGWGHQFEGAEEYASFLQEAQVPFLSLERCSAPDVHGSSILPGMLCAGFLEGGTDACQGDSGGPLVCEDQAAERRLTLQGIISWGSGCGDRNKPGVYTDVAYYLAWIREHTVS
Description: Human Factor XIIa (Enzyme Research Laboratories) was incubated at 25° C. with the fluorogenic substrate H-DPro-Phe-Arg-AFC and various concentrations of the test compound. Residual enzyme activity (initial rate of reaction) was determined by measuring the change in […] at 410 nm and the IC50 value for the test compound was determined.

[1] = Intrinsic clearance in rat liver microsomes; assay type: in vitro ADME; conditions: rat liver microsomes 0.5 mg/mL, 5 μM test compound, 37° C.; read-out: rat liver microsome (Clint μL/min/mg protein)
Description: (§1) Rat or human liver microsomes (0.5 mg/mL; Corning) were incubated with 5 μM test compound at 37° C. on a shaking platform (150 rpm). Samples were taken at 0, 6, 12, 18, 24 and 60 min and test compound concentrations were determined by LCMS against a calibration curve.

[2] = Plasma protein binding (PPB), rapid equilibrium dialysis, human plasma; assay type: in vitro ADME; conditions: 5 μM test compound, dialysis 5 hrs at 37° C.
Description: The fraction unbound in plasma was determined using ThermoScientific™ Pierce™ Rapid Equilibrium Dialysis Technology (Single-Use plate with inserts, 8K MWCO). […] Reference samples from the non-dialysed plasma were taken before the incubation to enable an assessment of recovery. Test compound concentrations were determined in plasma and buffer compartments by LCMS against a calibration curve. […] Results are presented as percent plasma protein bound (% PPB).

[3] = Predicted plasma clearance (Clp), well-stirred model, rat; assay type: in vitro ADME; conditions: percentage of hepatic blood flow
Description: (§2) The predicted plasma clearance (Clp) is calculated using the well-stirred model (Rowland M, Benet L Z, and Graham G G. Clearance concepts in pharmacokinetics. J Pharmacokinet Biopharm. (1973) 1:123-136.), one of several models that can be used to extrapolate the in vitro data. The model assumes instantaneous and complete mixing of drug within the liver and is a function of intrinsic clearance, hepatic blood flow and free fraction of drug in the blood. The predicted plasma clearance in mL/min/kg is presented as a percentage of hepatic blood flow (LBF).

[4] = Plasma protein binding (PPB), rapid equilibrium dialysis, rat plasma; assay type: in vitro ADME; conditions: 5 μM test compound, dialysis 5 hrs at 37° C.
Description: The fraction unbound in plasma was determined using ThermoScientific™ Pierce™ Rapid Equilibrium Dialysis Technology (Single-Use plate with inserts, 8K MWCO). 5 μM test compound was spiked into human or rat plasma (300 μL) and dialysed against 146.5 mM phosphate buffer (500 μL) for 5 hrs at 37° C., shaking at 1200 rpm. Reference samples from the non-dialysed plasma were taken before the incubation to enable an assessment of recovery. Test compound concentrations were determined in plasma and buffer compartments by LCMS against a calibration curve. The fraction unbound in plasma was determined using standard methodology (Waters N J et al (2008) J Pharm Sci 97(10); 4586-95). Results are presented as percent plasma protein bound (% PPB).

Human FXIa = Human FXIa (Homo sapiens (Human), UniProt P03951); test: Determination of the % inhibition / IC50 for FXIa; assay type: biochemical; conditions: for IC50: 25° C., substrate Z-Gly-Pro-Arg-AFC; for inhibition at 40 µM: read-out: % Inhibition @ 40 μM (human FXIa)
Chain of Human FXIa (P03951 388-625): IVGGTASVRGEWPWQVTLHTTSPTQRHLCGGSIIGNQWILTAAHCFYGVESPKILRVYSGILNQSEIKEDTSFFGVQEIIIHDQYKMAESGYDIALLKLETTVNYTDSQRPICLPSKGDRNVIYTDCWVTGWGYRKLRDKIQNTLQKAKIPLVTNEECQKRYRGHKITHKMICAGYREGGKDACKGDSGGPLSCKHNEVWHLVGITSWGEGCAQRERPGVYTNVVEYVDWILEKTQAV
Chain of Human FXIa (P03951 19-387): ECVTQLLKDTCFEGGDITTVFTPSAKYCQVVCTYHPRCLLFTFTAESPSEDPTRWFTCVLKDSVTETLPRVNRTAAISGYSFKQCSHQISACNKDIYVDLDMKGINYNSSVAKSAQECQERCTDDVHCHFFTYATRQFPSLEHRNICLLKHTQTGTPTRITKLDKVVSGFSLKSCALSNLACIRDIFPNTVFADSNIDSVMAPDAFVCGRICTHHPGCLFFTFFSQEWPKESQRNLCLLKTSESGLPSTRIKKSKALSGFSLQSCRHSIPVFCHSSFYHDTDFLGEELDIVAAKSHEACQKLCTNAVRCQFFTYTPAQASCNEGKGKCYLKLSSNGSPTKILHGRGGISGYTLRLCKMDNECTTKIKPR
Description: FXIa inhibitory activity in vitro was determined using standard published methods (see e.g. Johansen et al., Int. J. Tiss. Reac. 1986, 8, 185; Shori et al., Biochem. Pharmacol., 1992, 43, 1209; Sturzebecher et al., Biol. Chem. Hoppe-Seyler, 1992, 373, 1025). […]

[5] = Solubility in water and 0.1N HCl (aq); assay type: physicochemical; conditions: thermodynamic from solid, incubated at 1 mg/mL, 37° C.
Description: Solubility was determined in water and 0.1N HCl (aq). Test compounds were incubated at 1 mg/mL for 24 hrs at 37° C. on a shaking platform (500 rpm). Samples were taken at 1, 4 and 24 hrs and centrifuged at 15,000 g for 10 min. Test compound concentration in the supernatant was determined by LCMS against a standard curve.

[6] = Predicted plasma clearance (Clp), well-stirred model, human; assay type: in vitro ADME; conditions: percentage of hepatic blood flow
Description: as §2

Human plasma kallikrein [7] = target: T1, Human plasma kallikrein (Homo sapiens (Human), UniProt P03952); test: Determination of the IC50 for plasma kallikrein; assay type: biochemical; conditions: 25° C., substrate H-DPro-Phe-Arg-AFC; read-out: IC50 (human PKal)
T1 sequence (P03952 391-638): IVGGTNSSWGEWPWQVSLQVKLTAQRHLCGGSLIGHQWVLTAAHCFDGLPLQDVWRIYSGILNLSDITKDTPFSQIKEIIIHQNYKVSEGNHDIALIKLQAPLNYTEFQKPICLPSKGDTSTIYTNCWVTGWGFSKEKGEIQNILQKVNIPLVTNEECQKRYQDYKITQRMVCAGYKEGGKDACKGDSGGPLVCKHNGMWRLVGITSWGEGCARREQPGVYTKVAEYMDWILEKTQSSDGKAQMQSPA
T1 sequence (P03952 20-390): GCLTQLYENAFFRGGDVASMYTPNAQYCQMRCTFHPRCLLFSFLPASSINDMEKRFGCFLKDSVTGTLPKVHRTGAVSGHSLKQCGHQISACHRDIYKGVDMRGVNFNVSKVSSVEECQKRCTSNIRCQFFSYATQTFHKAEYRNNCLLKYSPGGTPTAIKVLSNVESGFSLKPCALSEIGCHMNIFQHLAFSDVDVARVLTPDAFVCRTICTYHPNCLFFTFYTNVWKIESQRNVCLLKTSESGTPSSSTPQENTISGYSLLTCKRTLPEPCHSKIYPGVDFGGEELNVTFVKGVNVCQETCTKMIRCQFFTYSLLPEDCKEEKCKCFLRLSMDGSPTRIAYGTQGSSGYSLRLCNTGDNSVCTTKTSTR
Description: Human plasma kallikrein (Protogen) was incubated at 25° C. with the fluorogenic substrate H-DPro-Phe-Arg-AFC and various concentrations of the test compound. Residual enzyme activity (initial rate of reaction) was determined by measuring the change in […] at 410 nm and the IC50 value for the test compound was determined.

Human plasma kallikrein [8] = target: T1, Human plasma kallikrein; test: Determination of the Ki for plasma kallikrein (mixed-model inhibition); assay type: biochemical; conditions: for Ki: human plasma kallikrein, mixed-model inhibition equation; for Alpha: parameter of the mixed-model equation indicating mechanism of inhibition
Description: Plasma kallikrein inhibitory activity in vitro was determined using standard published methods (e.g. Johansen et al., Int. J. Tiss. Reac. 1986, 8, 185; Shori et al., Biochem. Pharmacol., 1992, 43, 1209; Sturzebecher et al., Biol. Chem. Hoppe-Seyler, 1992, 373, 1025). […]. Residual enzyme activity (initial rate of reaction) was determined by measuring the change in fluorescence at 410 nm. The Ki value for the test compound was determined using the mixed-model inhibition equation (based on Equation 3.2 in: RA Copeland, Evaluation of Enzyme Inhibitors in Drug Discovery, Wiley 2005) in GraphPad Prism. The mixed model equation includes competitive, uncompetitive and noncompetitive inhibition as special cases and the parameter of Alpha to indicate mechanism of inhibition.

[9] = Pharmacokinetics following a single oral dose in male Sprague-Dawley rats; assay type: in vivo; conditions: rat, single po dose (nominal 10 mg/kg; actual dose per row in column Dose po), 10% DMSO/10% cremophor/80% SWFI, plasma
Description: Pharmacokinetic studies of the compounds in Table 13 were performed to assess the pharmacokinetics following a single oral dose in male Sprague-Dawley rats. Two rats were given a single po dose of 5 mL/kg of a nominal 2 mg/mL (10 mg/kg) composition of test compound in vehicle. Following dosing, blood samples were collected over a period of 24 hours. Sample times were 5, 15 and 30 minutes then 1, 2, 4, 6, 8 and 12 hours. Following collection, blood samples were centrifuged and the plasma fraction analysed for concentration of test compound by LCMS.

[10] = In vitro permeability, Caco-2 model for oral absorption; assay type: in vitro ADME; conditions: human, apical to basolateral, 50 μM test compound, 37° C.
Summary of the method: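 Caco-2 monolayers grown on collagen inserts for 3 days, with 50 μM compound added apically and incubated 1 hour at 37° C with shaking. Apical-to-basolateral transport measured by LCMS in both compartments. Monolayer integrity checked by TEER before and after, and by Lucifer Yellow flux.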

[11] = Intrinsic clearance in human liver microsomes; assay type: in vitro ADME; conditions: human liver microsomes 0.5 mg/mL, 5 μM test compound, 37° C.; read-out: Human liver microsome (Clint μL/min/mg protein)
Description: as §1

thrombin = thrombin (Homo sapiens (Human), UniProt P00734); test: Determination of enzyme selectivity: thrombin; assay type: biochemical; conditions: substrate at Km concentration
Description: (§3) Human serine protease enzymes plasmin, thrombin and trypsin were assayed for enzymatic activity using an appropriate fluorogenic substrate. Protease activity was measured by monitoring the accumulation of liberated fluorescence from the substrate over 5 minutes. The linear rate of fluorescence increase per minute was expressed as percentage (%) activity. The Km for the cleavage of each substrate was determined by standard transformation of the Michaelis-Menten equation.

trypsin = test: Determination of enzyme selectivity: trypsin; assay type: biochemical, human; conditions: substrate at Km concentration
Description: as §3

plasmin = plasmin (Homo sapiens (Human), UniProt P00747); test: Determination of enzyme selectivity: plasmin; assay type: biochemical; conditions: substrate at Km concentration
Chain of plasmin (P00747 581-810): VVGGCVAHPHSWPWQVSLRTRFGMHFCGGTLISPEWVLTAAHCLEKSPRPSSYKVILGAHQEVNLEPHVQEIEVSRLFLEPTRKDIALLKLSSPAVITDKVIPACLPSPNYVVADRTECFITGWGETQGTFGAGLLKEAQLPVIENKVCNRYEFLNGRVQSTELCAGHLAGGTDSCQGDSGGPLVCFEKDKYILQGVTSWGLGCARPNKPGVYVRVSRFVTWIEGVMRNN
Chain of plasmin (P00747 97-580): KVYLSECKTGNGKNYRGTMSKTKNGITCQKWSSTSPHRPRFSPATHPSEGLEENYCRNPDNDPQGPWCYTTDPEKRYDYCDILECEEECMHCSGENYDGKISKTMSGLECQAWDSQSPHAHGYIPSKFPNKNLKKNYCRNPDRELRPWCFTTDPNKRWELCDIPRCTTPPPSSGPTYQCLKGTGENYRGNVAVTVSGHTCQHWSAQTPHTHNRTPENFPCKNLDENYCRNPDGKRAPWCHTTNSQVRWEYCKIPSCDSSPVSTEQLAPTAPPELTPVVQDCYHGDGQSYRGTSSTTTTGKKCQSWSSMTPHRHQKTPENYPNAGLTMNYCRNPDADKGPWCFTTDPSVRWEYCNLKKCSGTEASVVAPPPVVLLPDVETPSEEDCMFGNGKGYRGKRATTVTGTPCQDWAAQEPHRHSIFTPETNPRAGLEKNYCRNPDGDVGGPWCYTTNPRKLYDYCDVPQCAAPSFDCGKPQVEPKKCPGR
Description: as §3

[12] = simulated gastric fluid, 0.1N HCl (aq), read-out: Solubility 0.1N HCl (aq)
[13] = water, read-out: Solubility Water

Compound: COCc1nn(Cc2ccc(Cn3ccccc3=O)cc2)cc1C(=O)NCc1nccc(OC)c1C [Example 22, N-[(4-methoxy-3-methylpyridin-2-yl)methyl]-3-(methoxymethyl)-1-({4-[(2-oxopyridin-1-yl)methyl]phenyl}methyl)pyrazole-4-carboxamide]
- IC50 (Human KLK1): > 40000 nM
- IC50 (Human Factor XIIa): > 40000 nM
- microsomal CLint at 5 μM [1]: 68 µL/min/mg
- fraction unbound at 5 h, 5 μM [2]: 0.08
- Predicted in vivo rat Clp (% LBF) [3]: <1.6 % LBF
- fraction unbound at 5 h, 5 μM [4]: < 0.01
- IC50 (Human FXIa): > 40000 nM
- inhibition at 40 µM (Human FXIa): 5%
- solubility [5, 12]: 900 µg/mL (≈ 1850 µM)
- solubility [5, 13]: 60 µg/mL (≈ 123 µM)
- Predicted in vivo human Clp (% LBF) [6]: 7 % LBF
- IC50 (Human plasma kallikrein [7]): 4.9 nM
- Ki (Human plasma kallikrein [8]): 1.9 nM
- Alpha (Human plasma kallikrein [8]): 29
- Cmax [9]: 1020 ng/mL
- Tmax [9]: 1 h

Compound: COCc1nn(Cc2ccc(Cn3ccccc3=O)cc2)cc1C(=O)NCc1cc(OC)ccc1C#N [Example 37, N-[(2-cyano-5-methoxyphenyl)methyl]-3-(methoxymethyl)-1-({4-[(2-oxopyridin-1-yl)methyl]phenyl}methyl)pyrazole-4-carboxamide]
- IC50 (Human KLK1): > 40000 nM
- Papp at 1 h, 50 μM [10]: 20 ×10⁻⁶ cm/s
- microsomal CLint at 5 μM [11]: 48 µL/min/mg
- IC50 (Human Factor XIIa): > 40000 nM
- microsomal CLint at 5 μM [1]: 73 µL/min/mg
- fraction unbound at 5 h, 5 μM [2]: 0.08
- Predicted in vivo rat Clp (% LBF) [3]: 11 % LBF
- fraction unbound at 5 h, 5 μM [4]: 0.05
- inhibition at 40 µM (Human FXIa; 40 μM test compound): 7%
- IC50 (Human FXIa): > 40000 nM
- Predicted in vivo human Clp (% LBF) [6]: 16 % LBF
- IC50 (Human plasma kallikrein [7]): 283 nM
- IC50 (thrombin): > 40000 nM
- IC50 (trypsin): > 40000 nM
- IC50 (plasmin): > 40000 nM

Compound: COCc1nn(Cc2ccc(Cn3ccccc3=O)cc2)cc1C(=O)NCc1ccccc1-n1cnnn1 [Example 74, 3-(methoxymethyl)-1-({4-[(2-oxopyridin-1-yl)methyl]phenyl}methyl)-N-{[2-(1,2,3,4-tetrazol-1-yl)phenyl]methyl}pyrazole-4-carboxamide]
- IC50 (Human KLK1): > 40000 nM
- Papp at 1 h, 50 μM [10]: 2 ×10⁻⁶ cm/s
- IC50 (Human Factor XIIa): > 40000 nM
- inhibition at 40 µM (Human FXIa; 40 μM test compound): 8%
- IC50 (Human FXIa): > 40000 nM
- IC50 (Human plasma kallikrein [7]): 17.6 nM
- IC50 (thrombin): > 40000 nM
- IC50 (trypsin): > 40000 nM
- IC50 (plasmin): > 40000 nM

Compound: COCc1nn(Cc2ccc(N3CCCC3)nc2)cc1C(=O)NCc1c(-n2cnnn2)ccc(OC)c1F [Example 77, N-{[2-fluoro-3-methoxy-6-(1,2,3,4-tetrazol-1-yl)phenyl]methyl}-3-(methoxymethyl)-1-{[6-(pyrrolidin-1-yl)pyridin-3-yl]methyl}pyrazole-4-carboxamide]
- IC50 (Human KLK1): > 40000 nM
- Papp at 1 h, 50 μM [10]: 28 ×10⁻⁶ cm/s
- microsomal CLint at 5 μM [11]: 29 µL/min/mg
- IC50 (Human Factor XIIa): > 40000 nM
- microsomal CLint at 5 μM [1]: 82 µL/min/mg
- fraction unbound at 5 h, 5 μM [2]: 0.03
- Predicted in vivo rat Clp (% LBF) [3]: <2.0 % LBF
- fraction unbound at 5 h, 5 μM [4]: < 0.01
- inhibition at 40 µM (Human FXIa; 40 μM test compound): 100%
- IC50 (Human FXIa): 235 nM
- Predicted in vivo human Clp (% LBF) [6]: 3 % LBF
- IC50 (Human plasma kallikrein [7]): 1.4 nM
- Ki (Human plasma kallikrein [8]): 0.17 nM
- Alpha (Human plasma kallikrein [8]): 4.2
- Cmax [9]: 845 ng/mL
- Tmax [9]: 1.5 h

Compound: COCc1nn(Cc2cnc(N3CCC(F)(F)C3)nc2)cc1C(=O)NCc1c(-n2cnnn2)ccc(OC)c1F [Example 86, 1-{[2-(3,3-Difluoropyrrolidin-1-yl)pyrimidin-5-yl]methyl}-N-{[2-fluoro-3-methoxy-6-(1,2,3,4-tetrazol-1-yl)phenyl]methyl}-3-(methoxymethyl)pyrazole-4-carboxamide]
- IC50 (Human KLK1): > 40000 nM
- Papp at 1 h, 50 μM [10]: 16 ×10⁻⁶ cm/s
- microsomal CLint at 5 μM [11]: 4 µL/min/mg
- IC50 (Human Factor XIIa): > 40000 nM
- microsomal CLint at 5 μM [1]: 35 µL/min/mg
- fraction unbound at 5 h, 5 μM [2]: 0.1
- Predicted in vivo rat Clp (% LBF) [3]: 3 % LBF
- fraction unbound at 5 h, 5 μM [4]: 0.03
- inhibition at 40 µM (Human FXIa; 40 μM test compound): 99%
- IC50 (Human FXIa): 477 nM
- solubility [5, 12]: 50 µg/mL (≈ 89.5 µM)
- solubility [5, 13]: 1 µg/mL (≈ 1.79 µM)
- Predicted in vivo human Clp (% LBF) [6]: 2 % LBF
- IC50 (Human plasma kallikrein [7]): 1.7 nM
- Ki (Human plasma kallikrein [8]): 0.28 nM
- Alpha (Human plasma kallikrein [8]): 2.78
- Cmax [9]: 981 ng/mL
- Tmax [9]: 0.5 h
